The record followed here is US20250368687A1, “SHORT SYNTHETIC PEPTIDES AND USES THEREOF IN THE TREATMENT OF ENTEROVIRUS INFECTION” (CITY UNIVERSITY OF HONG KONG, priority 2024, published 2025).

One assay deals with EV-A71 IRES activity. Put plainly: Dual-luciferase IRES reporter assay in HEK 293T cells pre-treated with peptides. The following applies: 25 μM for 2 hours; for decrease of 2Apro-induced viral IRES activity: 24 h. The assay is classed as cell-based. As to the method: (§1) FIGS. 10A-10K. Peptide S78 inhibited EV-A71 replication and propagation. (FIG. 10A) RD cells were pre-treated with peptides S78 or for 2 hours and infected with EV-A71 at the MOI of 10 for 6 hours. Cell lysates were collected for western blot assay. Hsp27 phosphorylation on Ser 15, 78, 82 were detected by specific antibodies. β-Actin were detected as internal control. (FIG. 10B) Densitometric analysis of FIG. 9A. (FIG. 10C) HEK 293T cells were pre-treated with peptides S78 or S78A at the concentration of 25 μM for 2 hours and then co-transfected with Hsp27-WT plasmid (800 ng), pIRES reporter plasmid (200 ng) and 2A^pro-expressing plasmid or 2AC110A-expressing plasmid (200 ng) for 24 h, then the luciferase activity was measured. (FIG. 10D-10E) RD cells were treated with peptides S78 or S78A and then infected with EV-A71. EV-A71 VP1 were detected. (FIG. 10F) RD cells were treated with peptides and then infected with EV-A71 at the MOI of 1 for 12 hours. The EV-A71-induced CPE was captured. (FIG. 10G-10H) Intracellular viral RNA was extracted and quantified by qPCR. (FIG. 10I) Densitometric analysis FIG. 9D-E. (FIG. 10J) RD cells were treated with peptides S78 or and then infected with EV-A71 at the MOI of 1 for 12 hours. Extracellular viral RNA was extracted and quantified by qPCR. (FIG. 10K) Viral titration was calculated by TCID50. The Statistical analyses were carried out using Student's t-test. *: p<0.05, **: p<0.01, ***: p<0.001. Data are expressed as mean ±SD.
FIGS. 11A-11G Inhibition of EV-A71 Protein Translation and Viral Reproduction by peptide S82A. (FIG. 11A) HEK 293T cells were pre-treated with peptides NC, S78, S78A, S82A, or S78-3A at the concentration of 25 μM for 2 hours and then co-transfected with Hsp27-WT plasmid (800 ng), pIRES reporter plasmid (200 ng) and 2A^pro-expressing plasmid for 24 h, then the luciferase activity was measured. (FIG. 11B) RD cells were pre-treated with peptides NC at indicated concentrations for 2 hours and infected with EV-A71 at the MOI of 1 for 9 hours. Intracellular viral RNA was extracted and quantified by qPCR. […] EV-A71 VP1 were detected. β-Actin was detected as an internal control. (FIG. 11F) Densitometric analysis of the EV-A71 VP1 level in FIG. S7C-E was quantified and normalized with β-Actin using ImageJ. […] Viral titration was calculated. […] Data are expressed as mean ±SD.
HEK 293T cells were seeded in 24-wells, and then co-transfected with plasmids to simultaneously express 2A^pro (200 ng), pIRES reporter (200 ng), and the wild-type Hsp27 or its mutants (800 ng). […] The Renilla luciferase (RLuc) and Firefly luciferase (FLuc) activity were determined by using a dual-luciferase reporter assay (Promega) according to the manufacturer's instructions in a Lumat LB9507 bioluminometer.

A further assay deals with EV-A71 VP1. As to the kind of experiment: Western blot of EV-A71 VP1 level in RD cells. The assay is classed as cell-based. Conditions: for EV-A71 VP1 protein level (in words): indicated concentrations. As to the method: as §1
FIGS. 11A-11G Inhibition of EV-A71 Protein Translation and Viral Reproduction by peptide S82A. (FIG. 11A) HEK 293T cells were pre-treated with peptides NC, S78, S78A, S82A, or S78-3A at the concentration of 25 μM for 2 hours and then co-transfected with Hsp27-WT plasmid (800 ng), pIRES reporter plasmid (200 ng) and 2A^pro-expressing plasmid for 24 h, then the luciferase activity was measured. (FIG. 11B) RD cells were pre-treated with peptides NC at indicated concentrations for 2 hours and infected with EV-A71 at the MOI of 1 for 9 hours. Intracellular viral RNA was extracted and quantified by qPCR. (FIG. 11C-11E) RD cells were treated with peptides NC, S82A, or S78-3A at indicated concentrations for 2 hours and then infected with EV-A71 at the MOI of 1 for 9 hours. Cell lysates were collected for western blot assay. EV-A71 VP1 were detected. β-Actin was detected as an internal control. (FIG. 11F) Densitometric analysis of the EV-A71 VP1 level in FIG. S7C-E was quantified and normalized with β-Actin using ImageJ. (FIG. 11G) RD cells were treated with peptides S78, S78A, S82A, or S78-3A at the concentration of 25 μM for 2 hours and then infected with EV-A71 at the MOI of 0.1 for 24 hours. Viral titration was calculated. The Statistical analyses were carried out using Student's t-test. *: p<0.05, **: p<0.01, ***: p<0.001. Data are expressed as mean ±SD.
After cell lysis in Nonidet-P40 (NP-40) buffer, the cell lysates were centrifuged, and the concentration was determined by Bradford assay (Bio-Rad). 20 μg of protein was used for 12% SDS-PAGE and transferred onto polyvinylidene fluoride membrane (PVDF) (GE, MA, USA). Following 5% bovine serum albumin (BSA) blocking for 1 hrs, the membrane was incubated with antibodies (1:1000) against Hsp27 (sc-13132), pHsp27-Ser15 (ab76313), pHsp27-Ser78 (ADI-SPA-523), pHsp27-Ser82 (ab155987), VP1 (GTX132339), β-Actin (sc-47778), hnRNP A1 (sc-32301), or GAPDH (sc-32233) overnight in 4° C. After secondary antibodies (HRP-conjugated Affinipure Goat Anti-Mouse IgG(H+L), SA00001-1, and HRP-conjugated Affinipure Goat Anti-Rabbit IgG(H+L), SA00001-2) incubation for 1 hrs, the protein was visualized with a chemiluminescence reagent (PerkinElmer, MA, USA) on Bio-Rad Chemidoc Imaging System. The protein bands were quantified by densitometry with ImageJ if necessary.
(In general: In western blotting, separated proteins are transferred to a membrane and probed.)

Turning to “Ac-RKKRRQRRRYSREANQPKPSPKRESGEE-NH2 [NC, reference compound]”, in the assay on EV-A71 IRES activity (24 h (FIG. 11A)), the “effect on viral IRES activity (in words)” value is “did not affect”. Further, in the assay with EV-A71 VP1, the “EV-A71 VP1 protein level (in words)” value is listed as “no effect”.

Ac-RKKRRQRRRAYSRALSRQLSS-NH2 [S78]: the “decrease of 2Apro-induced viral IRES activity” value with EV-A71 IRES activity is on record as 34%. Besides, in the assay on EV-A71 VP1 (50 μM), the “EV-A71 VP1 protein level at 50 μM (in words)” value is “almost undetectable level” and the “reduction of VP1 level (densitometric assay)” value is given as “over 99%”. The “EV-A71 VP1 protein level (in words)” value with EV-A71 VP1 is “dramatically decreased”.

Consider Ac-RKKRRQRRRAYSRALARQLSS-NH2 [S78A], for which the “decrease of 2Apro-induced viral IRES activity” value with EV-A71 IRES activity is listed as “about 10%”. Further, the “reduction of VP1 level (densitometric assay)” value in the assay with EV-A71 VP1 (50 μM) was “about 60%”. For the same substance, in the assay with EV-A71 VP1, the “EV-A71 VP1 protein level (in words)” value is given as “much weaker”.
